Test results as given in patent publication US20080008774A1, “Use Of Plants, Plant Extracts And Nature-Identical Components From Plants To Affect The Rumen Fermentation And To Improve The Energy And Protein Retention Of Ruminants” (DSM IP ASSETS B.V., priority 2004, published 2008).

How the values were obtained:
[1] = tested on: ruminal fermentation; experiment: León methods for general effects on fermentation (batch cultures); format: cell-based, sheep; details: Leon diet; amount in feed 10 %; 24 h; control = 100
Procedure: Rumen cannulated sheep fed on a diet consisting of 75% alfalfa hay and 25% barley (free access to vitamin-mineral supplements and water) were used as donors for rumen fluid. Rumen fluid was collected just before the morning meal. The substrate used for the batch cultures consisted of 50% alfalfa hay, 40% grass hay and 10% barley grain, milled in a hammer mill with a 1-mm screen. The amount of substrate used was 500 mg, and inclusion rate of the test plant was 10% (ca. 50 mg). Both were weighed into serum bottles, where 50 ml of buffered rumen fluid (containing 10 ml of filtered rumen fluid and 40 ml of the medium described by Goering & Van Soest, 1970) were dispensed an-aerobically. The bottles were sealed and incubated at 39° C. After 24 h of incubation, the ensuing measurements were recorded: • Total gas production (ml), using a pressure transducer and collecting the gas in a calibrated syringe. • pH in the incubation medium. • Volatile fatty acids concentration in the incubation medium, by GC (VFA was also measured at inoculation time to calculate VFA production after 24 h). • DM incubation residue, by filtering the bottle contents in sintered crucibles and weighing the residue after drying. Thereafter, the neutral detergent fibre (NDF) content of the residue was determined to calculate the amount of un-degraded NDF. From this, DM and NDF disappearance were estimated. Three replicates per plant were incubated, and blanks (no substrate no plant) and controls (500 mg substrate without any plant, and 550 mg substrate without any plant) were used.

[2] = tested on: lactic acid producing bacteria; experiment: Acidosis assay (pH and lactic acid, milled wheat grain, 48-h fermentation); format: cell-based, cows; details: 100 mg/g DM in milled wheat grain (β-myrcene 10 mg/g), control = 100
Procedure: A model was used in which the decrease in incubation medium pH and the concentration of lactic acid produced, relative to the controls over a 48-h fermentation period provided an indication of the ability of the test substrates to offset potential acidotic effects. In this study milled wheat grain [2 mm] was used as the basal substrate and the test materials included at 100 mg g^−1 DM [or 10 mg g^−1 DM β-myrcene]. As before 1.0 g total substrate was added to each flask. To enhance lactic acid production, the buffer solution prepared was diluted by 50 percent. This was to ensure that the buffering capacity of the incubation medium was exceeded and the resulting decrease in pH encouraged growth of Lactobacilli and other lactic acid producing bacteria. Rumen fluid was obtained and prepared as previously described except that the two cows used were offered an early lactation ration with a high level of coarse milled wheat. Fluid pH measurements were made one hour after inoculation [start pH] then after a further 23 and 47 hours, by inserting a pH electrode directly into each flask. Immediately following the last measurement approximately 3.0 ml fluid were taken from each flask, bulked by sample and stored frozen at −20° C. until analyzed enzymatically for L [+] lactic acid. Results are presented as absolute differences relative to the controls. […]

[3] = tested on: ruminal ciliate protozoa; experiment: Bacteriolytic activity of ruminal ciliate protozoa (breakdown of 14C-leucine-labelled Selenomonas ruminantium in strained ruminal fluid); format: cell-based, sheep
Procedure: The rate of breakdown of [^14C]leucine-labelled Selenomonas ruminantium was determined by incubating strained ruminal fluid in vitro with labelled S. ruminantium in the presence of 5 mM unlabelled L-leucine as described previously (Wallace & McPherson, 1987). Under these conditions, the great majority of bacterial protein breakdown is caused by the ingestion and digestion of bacteria by ciliate protozoa. The samples were, unless stated otherwise, added at a concentration of 5 mg/ml. The sheep received a mixed grass hay:concentrate diet (Frumholtz et al., 1989).

[4] = tested on: ruminal fermentation; experiment: Reading methods for general effects on fermentation (RPT, maize silage); format: cell-based, lactating dairy cows; details: Reading diet; for Cumulative gas, 24 h / Fermentation efficiency: control = 100; for Dry matter digestion: value in absence of plant material = 100
Procedure: A series of thirteen consecutive fermentations, one per week, was undertaken using the Reading Pressure Technique [RPT], to identify potential effects from including these test materials on the fermentation and degradation characteristics of a basal forage [maize silage]. All materials were examined in triplicate and at two inclusion levels [100 and 400 mg g^−1 DM substrate], with the exception of β-myrcene [10 and 40 mg g^−1 inclusion levels]. The maize silage was pre-dried and milled to pass a 2 mm screen. A total of 1.0 g blended substrate [silage plus substrate] was placed in each fermentation flask. Buffered incubation medium [90 ml] was then added, the flasks sealed and stored overnight at room temperature. Prior to inoculation with prepared rumen fluid, flask contents were raised to 39° C. Rumen fluid was obtained manually [hand-squeezed contents] prior to feeding [07.00 h] from two lactating dairy cows offered a maize/grass silage : concentrate [60:40] ration ad libitum. The fluid was filtered through two layers of muslin and held under CO2 at 39° C. until use. Ten ml prepared fluid was added to each flask and these incubated at 39° C. for the duration of the study. Six negative controls [buffered medium plus rumen fluid only] were included in each run to correct gas values and degradation residues for direct rumen fluid effects. In addition un-supplemented maize silage [1.0 g flask^−1] was included in all runs [six flasks per run]. Results within studies were expressed relative to the positive control values. Headspace gas pressure readings were obtained 2, 4, 6, 8, 10, 12, 14, 16, 18, 21 and 24 hours post-inoculation. Following the last measurement approximately 3.0 ml fermentation medium was sampled from each flask and bulked by test material/inclusion level and stored frozen [−20° C.] until later analysis for VFA composition using a Varian 3600 GC. Fermentation residues were recovered by filtering flask contents through 60 ml Gooch crucibles [porosity 1, 100 to 160 μm] under light vacuum. The residues were then dried [100° C. for 24 hours], weighed, ashed [500° C. overnight] and reweighed. The quantity of dry matter [DM] and organic matter [OM] determined were used to assess iDMD and iOMD [in vitro DM and OM degradation, respectively]. The extent [ml gas g^−1 OM incubated] and rate of fermentation gas release [ml h^−1] were generated using a previously derived quadratic function to convert pressure to volume. Feed fermentation efficiency [FE] was estimated as iDMD [g kg^−1]/cumulative gas [ml] release at 24 h post-inoculation. Statistical differences between treatment means and the positive control [maize silage alone] were assessed using Students T-test and significance declared at […].

[5] = tested on: ruminal digesta; experiment: Methane formation by ruminal digesta (León incubations, GC); format: cell-based, sheep
Procedure: A representative sample of the gas produced was taken for subsequent analysis. Sampling was conducted using special gas-tight glass syringes fitted with a valve allowing for sample locking and storage. The sample was collected directly from the headspace, after inserting the needle through the septum of the stopper, taking a sample in the syringe and closing the valve. This sample was collected after measuring total gas production, assuming that gas composition was the same in the gas released and in that remaining in the headspace. Methane concentration in the gas produced was determined by gas chromatography. The gas sample (300 to 500 μl) was injected directly from the gas-tight syringe to the corresponding port. The GC parameter settings used for the analysis were: • Instrument: Shimadzu GC-14B provided with a flame ionisation detector (FID) • Column: 2.3 meters length×2.1 mm internal diameter stainless steel column packed with 60/80 mesh Carboxen 1000 stationary phase • Carrier gas: Helium, flow rate (100 kPa), Constant flow mode • Temperatures: • Detector: FID. Temperature 200° C., Synthetic Air flow rate (50 kPa), H2 flow rate (50 kPa) • Injector: Temperature 200° C. • Column-oven: 170° C. […] The standard curve was established by plotting a linear regression of the standard quantities injected of methane versus the area of the peaks to obtain the response factor.

[6] = tested on: ruminal fermentation; experiment: Hohenheim methods for general effects on fermentation (RPT, grass silage); format: cell-based, non-lactating Holstein cows; details: Hohenheim diet; amount in feed 10 %; control = 100
[7] = tested on: ruminal digesta; experiment: Proteolytic activity of ruminal digesta, Method 1 (14C-casein); format: cell-based, sheep; details: 2.5 mg/ml, 1 h; value in absence of plant material = 100
Procedure: Method 1. Strained ruminal fluid from the same sheep was used to determine proteolytic activity using the ^14C-casein method of Wallace (1983). Samples were added to a final concentration of 2.5 mg/ml, and an incubation time of 1 h was used.

[8] = amount in feed 10 % (β-myrcene 10 mg/g)
[9] = amount in feed 40 % (β-myrcene 40 mg/g)

C=CC(=C)CCC=C(C)C [Sample 13, β-Myrcene]
App. digestibility [1]: 93
C3/C2 [1]: 105
Digestibility [1]: 102
Fermentation efficiency [1]: 109
Gas production [1]: 97
Microbial biomass [1]: 115
TVFA [1]: 96
Acidity, 24 h ([2]; 24 h): 105
Acidity, 48 h ([2]; 48 h): 115
bacteriolytic activity of ciliate protozoa / protozoal activity (in words) [3]: moderate inhibiting effect
Protozoal activity ([3]; 5 mg/ml, value in absence of plant material = 100): 68
Cumulative gas, 24 h [4, 8]: 100
Fermentation efficiency [4, 8]: 103
Dry matter digestion [4, 8]: 103
Cumulative gas, 24 h [4, 9]: 82
Fermentation efficiency [4, 9]: 109
Dry matter digestion [4, 9]: 89
methane production / methanogenic activity (in words) [5]: decrease
Methane formation, Leon ([5]; 10% of feed, value in absence of plant material = 100): 90
C3/C2 [6]: 104
Digestibility [6]: 100
Fermentation efficiency [6]: 99
Gas production [6]: 101
SCFA [6]: 103
Proteolysis, Method 1 [7]: 110
